Assay results taken from patent publication US20240269086A1, “PERGULARIA TOMENTOSA SILVER NANOPARTICLES” (KING FAISAL UNIVERSITY, priority 2023, published 2024).

How the values were obtained:
Experiment in all cases: Agar disk diffusion, inhibition zone diameter
Type in all cases: cell-based
S. enteritidis = details: 6.25 μg/ml (by grid column), Nil = No growth
Excerpt: (§1) The agar disk diffusion method was used to investigate the antibacterial activity of the PT-AgNPs against four bacterial strains.

E. coli = details: 25 μg/ml, Nil = No growth
Excerpt: as §1

B. cereus = details: 25 μg/ml, Nil = No growth
Excerpt: as §1

S. aureus = details: 25 μg/ml, Nil = No growth
Excerpt: as §1

Measured: IZD (mm)

O=C(N[C@H](CO)[C@H](O)c1ccc([N+](=O)[O-])cc1)C(Cl)Cl [Chloramphenicol]
Nil: all assays above
